Results from patent US7192981B2, “3,4-dihydroxyhydrocinnamic acid derivative” (Bionutrigen Co., Ltd., priority 2005, dated 2007).

Tested on: isolated rat epididymal adipocytes
Assay: Glucose transport assay (2-DOG uptake)
Type: cell-based
Conditions: for glucose transport at higher doses: rat adipocytes, 4 h

Compound | glucose transport at higher doses | glucose transport (insulin at the indicated concentrations, 30 min)
COc1ccc(Cl)cc1C(=O)NCCc1ccc(S(=O)(=O)NC(=O)NC2CCCCC2)cc1 [glyburide, reference compound] | decreased | 
CN(C)C(=N)N=C(N)N [metformin, reference compound] | remained unchanged | 
insulin |  | increased glucose transport in a dose-dependent manner
